# Experiments:
# Assay type in all cases: cell-based
# HeLa = experiment: MTT cytotoxicity assay, HeLa; conditions: Homo sapiens, 48 h, mean ± SD, three independent experiments
# Protocol: (§1) The in vitro cytotoxic potency of DHAA acyl-thiourea derivatives 8a–8o and 9a–9o were evaluated by 3-(4,5-dimethylthiazol-2-yl)-2,5-diphenyltetrazolium bromide (MTT) assay against HeLa, SK-OV-3 and MGC-803 tumor cell lines, with 5-FU as the positive control.
# (§2) General procedure for cytotoxic evaluation in vitro: HeLa, HepG2, SK-OV-3 and MGC-803 cells were seeded into 96-well microculture plates and allowed to adhere for 24 h, respectively. After cells were exposed to compounds at concentrations from 100 to 0.01 μM for 48 h, medium was aspirated and replenished with complete medium. IC50 was evaluated by MTT tetrazolium dye assay. Each experiment was performed three times; Statistical analysis: All statistical analysis was performed with SPSS Version 10 (SPSS, Chicago, IL, USA). Data was analyzed by one-way ANOVA. Mean separations were performed using the least significant difference method. Each experiment was replicated thrice, and all experiments yielded similar results. Measurements from all the replicates were combined, and treatment effects were analyzed.
# SK-OV-3 = experiment: MTT cytotoxicity assay, SK-OV-3; conditions: Homo sapiens, 48 h, mean ± SD, three independent experiments
# Protocol: as §1, §2
# MGC-803 = experiment: MTT cytotoxicity assay, MGC-803; conditions: Homo sapiens, 48 h, mean ± SD, three independent experiments
# Protocol: as §1, §2
# HL-7702 = experiment: MTT cytotoxicity assay, HL-7702 normal cells; conditions: L02, 48 h, normal human cells, mean ± SD, three independent experiments
# Protocol: [The source words this procedure for another cell line and reports this cell line under the same test.] as §1, §2
structure (smiles),measurement,setting,value
"CC(C)c1ccc2c(c1)CCC1[C@](C)(C(=O)NC(=S)N[C@H](C)C(=O)Nc3ccccc3)CCC[C@]21C (stereo partly drawn) [Compound 8a, (1R,4aS)-7-Isopropyl-1,4a-dimethyl-N-(((R)-1-oxo-1-(phenylamino)propan-2-yl)carbamothioyl)-1,2,3,4,4a,9,10,10a-octahydrophenanthrene-1-carboxamide]",IC50,HeLa,31.1 ± 2.13 µM
same,IC50,SK-OV-3,26.5 ± 2.53 µM
same,IC50,MGC-803,28.5 ± 1.79 µM
same,IC50,HL-7702,47.6 ± 2.43 µM
"CC(C)c1ccc2c(c1)CCC1[C@](C)(C(=O)NC(=S)N[C@H](Cc3ccccc3)C(=O)Nc3ccccc3F)CCC[C@]21C (stereo partly drawn) [Compound 9h, (1R,4aS)-N-(((R)-1-((2-Fluorophenyl)amino)-1-oxo-3-phenylpropan-2-yl)carbamothioyl)-7-isopropyl-1,4a-dimethyl-1,2,3,4,4a,9,10,10a-octahydrophenanthrene-1-carboxamide]",IC50,HeLa,18.8 ± 1.45 µM
same,IC50,SK-OV-3,28.8 ± 2.32 µM
same,IC50,MGC-803,24.7 ± 3.33 µM
same,IC50,HL-7702,49.4 ± 2.64 µM
"CC(C)c1ccc2c(c1)CCC1[C@](C)(C(=O)NC(=S)N[C@H](C)C(=O)Nc3cccc4ccccc34)CCC[C@]21C (stereo partly drawn) [Compound 8m, (1R,4aS)-7-Isopropyl-1,4a-dimethyl-N-(((R)-1-(naphthalen-1-ylamino)-1-oxopropan-2-yl)carbamothioyl)-1,2,3,4,4a,9,10,10a-octahydrophenanthrene-1-carboxamide]",IC50,HeLa,46.6 ± 4.77 µM
same,IC50,SK-OV-3,49.4 ± 4.64 µM
same,IC50,MGC-803,36.5 ± 3.24 µM
same,IC50,HL-7702,59.5 ± 4.65 µM

# Source: publication PMC4519859, “Synthesis and Biological Evaluation of Novel Dehydroabietic Acid Derivatives Conjugated with Acyl-Thiourea Peptide Moiety as Antitumor Agents” (International Journal of Molecular Sciences, 2015)
